In brackets after ≈: the same amount, converted by molar mass. Like-named read-outs stand apart in the source and are kept apart here.
Experiments:
[1] = system: Mycoplasma gallisepticum KP-13; experiment: Activity against Mycoplasma, paper disk inhibition zone; format: cell-based; conditions: paper disk 8 mm in diameter, 37° C., about 48 hours
Description: (§1) In addition, the activity of the PTL-448 derivatives against Mycoplasma was examined by conventional methods (paper disk 8 mm in diameter, 37° C., about 48 hours).

[2] = system: Acholeplasma laidlawii PG-8; experiment: as above; format: cell-based; conditions: paper disk 8 mm in diameter, 37° C., about 48 hours
Description: as §1

[3] = system: Salmonella typhimurium KB 20; experiment: Minimum inhibitory concentration (MIC), antimicrobial activity; format: cell-based; conditions: Salmonella enterica
Description: (§2) The antimicrobial activity of the PTL-448 derivatives of the invention is illustrated in Table 3, which is a summary of the results of a number of tests carried out to determine minimum inhibitory concentrations (MIC) of the derivatives against a number of typical bacteria. Comparative results for Spiramycin I (SPM I) and III (SPM III) are also given. Tests were carried out using heart infusion agar media (pH 7 at 37° C., after about 20 hours).

[4] = system: Staphylococcus aureus ATCC 6538P; experiment: as above; format: cell-based; conditions: ATCC6538P
Description: as §2

[5] = system: Streptococcus pneumoniae III KB 165; experiment: as above; format: cell-based
Description: as §2

[6] = system: Klebsiella pneumoniae ATCC 10031; experiment: as above; format: cell-based
Description: as §2

[7] = system: E. coli N-33; experiment: as above; format: cell-based; conditions: Escherichia coli
Description: as §2

[8] = system: B. cereus IFO 3001; experiment: as above; format: cell-based; conditions: Bacillus cereus
Description: as §2

[9] = system: S. aureus FDA 209P; experiment: as above; format: cell-based; conditions: Staphylococcus aureus, FDA209P
Description: as §2

[10] = system: Micrococcus luteus ATCC 9341; experiment: as above; format: cell-based
Description: as §2

[11] = system: Bacillus subtilis PCI 219; experiment: as above; format: cell-based
Description: as §2

[12] = Solubility; format: physicochemical
[13] = Toxicity tests in mice; format: in vivo; conditions: 100 mg/kg i.p., after 1 month of treatment
[14] = system: S. pyogenes KB 166; experiment: Minimum inhibitory concentration (MIC), antimicrobial activity; format: cell-based; conditions: Streptococcus pyogenes, KB166, heart infusion agar, pH 7, 37° C., about 20 hours
Description: as §2

[15] = Salmonella typhimurium KB 20, heart infusion agar, pH 7, 37° C., about 20 hours, read-out: MIC
[16] = Staphylococcus aureus ATCC 6538P, heart infusion agar, pH 7, 37° C., about 20 hours, read-out: MIC
[17] = IIIKB165, Streptococcus pneumoniae III KB 165, heart infusion agar, pH 7, 37° C., about 20 hours, read-out: MIC
[18] = ATCC10031, Klebsiella pneumoniae ATCC 10031, heart infusion agar, pH 7, 37° C., about 20 hours, read-out: MIC
[19] = N33, E. coli N-33, heart infusion agar, pH 7, 37° C., about 20 hours, read-out: MIC
[20] = IFO3001, B. cereus IFO 3001, heart infusion agar, pH 7, 37° C., about 20 hours, read-out: MIC
[21] = S. aureus FDA 209P, heart infusion agar, pH 7, 37° C., about 20 hours, read-out: MIC
[22] = ATCC9341, Micrococcus luteus ATCC 9341, heart infusion agar, pH 7, 37° C., about 20 hours, read-out: MIC
[23] = PCI219, Bacillus subtilis PCI 219, heart infusion agar, pH 7, 37° C., about 20 hours, read-out: MIC
[24] = methanol, ethanol, acetone, ethyl acetate, chloroform, benzene

SMILES | Diameter of Inhibition Zone [1] [mm] | Diameter of Inhibition Zone [2] [mm] | MIC [3, 15] [µg/mL] | MIC [4, 16] [µg/mL] | MIC [5, 17] [µg/mL] | MIC [6, 18] [µg/mL] | MIC [7, 19] [µg/mL] | MIC [8, 20] [µg/mL] | MIC [9, 21] [µg/mL] | MIC [10, 22] [µg/mL] | MIC [11, 23] [µg/mL] | Solubility ([12]; ether, n-hexane) | Solubility [12, 24] | Solubility ([12]; water) | fatalities [13] | MIC [14] [µg/mL] | further results
CCC1OC(=O)CC(OC(C)=O)C(C)C(OC2OC(C)C(OC3CC(C)(O)C(O)C(C)O3)C(N(C)C)C2O)C(CC=O)CC(C)C(OC2CCC(N(C)C)C(C)O2)C=CC(C)=CC1C (stereo not shown) [PTL-448-A] | 29.2 | 32.6 | > 100 | 6.25 (≈ 6.86 µM) | 0.4 (≈ 0.439 µM) | > 100 | 1.56 (≈ 1.71 µM) | 3.12 (≈ 3.42 µM) | 6.25 (≈ 6.86 µM) | 0.4 (≈ 0.439 µM) | 1.56 (≈ 1.71 µM) | Slightly soluble | Soluble | Insoluble | no fatalities occurred | – | –
CCC1OC(=O)CC(O)C(C)C(OC2OC(C)C(OC3CC(C)(O)C(O)C(C)O3)C(N(C)C)C2O)C(CC=O)CC(C)C(OC2CCC(N(C)C)C(C)O2)C=CC(C)=CC1C (stereo not shown) [PTL-448-B] | 30.1 | 31.4 | > 100 | 3.12 (≈ 3.59 µM) | 0.4 (≈ 0.46 µM) | > 100 | 0.78 (≈ 0.897 µM) | 1.56 (≈ 1.79 µM) | 3.12 (≈ 3.59 µM) | 0.4 (≈ 0.46 µM) | 0.78 (≈ 0.897 µM) | Slightly soluble | Soluble | Insoluble | no fatalities occurred | 0.4 (≈ 0.46 µM) | –
CCC1OC(=O)CC(OC(C)=O)C(C)C(OC2OC(C)C(O)C(N(C)C)C2O)C(CC=O)CC(C)C(OC2CCC(N(C)C)C(C)O2)C=CC(C)=CC1C (stereo not shown) [PTL-448-C] | – | 33.1 | 50 (≈ 65.2 µM) | 1.56 (≈ 2.03 µM) | 0.2 (≈ 0.261 µM) | 50 (≈ 65.2 µM) | 0.4 (≈ 0.522 µM) | 1.56 (≈ 2.03 µM) | 1.56 (≈ 2.03 µM) | 0.4 (≈ 0.522 µM) | 1.56 (≈ 2.03 µM) | Slightly soluble | Soluble | Insoluble | no fatalities occurred | 0.4 (≈ 0.522 µM) | –
CCC1OC(=O)CC(O)C(C)C(OC2OC(C)C(O)C(N(C)C)C2O)C(CC=O)CC(C)C(OC2CCC(N(C)C)C(C)O2)C=CC(C)=CC1C (stereo not shown) [PTL-448-D] | – | 32.0 | 25 (≈ 34.5 µM) | 1.56 (≈ 2.15 µM) | 0.2 (≈ 0.276 µM) | 25 (≈ 34.5 µM) | 0.2 (≈ 0.276 µM) | 1.56 (≈ 2.15 µM) | 1.56 (≈ 2.15 µM) | 0.2 (≈ 0.276 µM) | 1.56 (≈ 2.15 µM) | Slightly soluble | Soluble | Insoluble | no fatalities occurred | 0.4 (≈ 0.552 µM) | –
COC1C(O)CC(=O)OC(C)CC=CC=CC(OC2CCC(N(C)C)C(C)O2)C(C)CC(CC=O)C1OC1OC(C)C(OC2CC(C)(O)C(O)C(C)O2)C(N(C)C)C1O (stereo not shown) [SPM I, Spiramycin I, reference compound] | – | – | – | – | – | – | – | – | – | – | – | – | – | – | – | – | MIC ([3]; TYPHIMURIUM, 20 h, pH 7): > 100 µg/mL; MIC ([4]; Staphylococcus aureus, 20 h, pH 7): 6.25 µg/mL (≈ 7.41 µM); MIC ([5]; Streptococcus pneumoniae, IIIKB165, 20 h, pH 7): 0.4 µg/mL (≈ 0.474 µM); MIC ([6]; Klebsiella pneumoniae, ATCC10031, 20 h, pH 7): > 100 µg/mL; MIC ([7]; N33, 20 h, pH 7): 1.56 µg/mL (≈ 1.85 µM); MIC ([8]; IFO3001, 20 h, pH 7): 3.12 µg/mL (≈ 3.7 µM); MIC ([9]; 20 h, pH 7): 6.25 µg/mL (≈ 7.41 µM); MIC ([10]; Micrococcus luteus, ATCC9341, 20 h, pH 7): 0.4 µg/mL (≈ 0.474 µM); MIC ([11]; Bacillus subtilis, PCI219, 20 h, pH 7): 1.56 µg/mL (≈ 1.85 µM)
CCC(=O)OC1CC(=O)OC(C)CC=CC=CC(OC2CCC(N(C)C)C(C)O2)C(C)CC(CC=O)C(OC2OC(C)C(OC3CC(C)(O)C(O)C(C)O3)C(N(C)C)C2O)C1OC (stereo not shown) [SPM III, Spiramycin III, reference compound] | – | – | > 100 | 12.5 (≈ 13.9 µM) | 0.4 (≈ 0.445 µM) | > 100 | 1.56 (≈ 1.74 µM) | 3.12 (≈ 3.47 µM) | 12.5 (≈ 13.9 µM) | 0.4 (≈ 0.445 µM) | 1.56 (≈ 1.74 µM) | – | – | – | – | – | –
